The subject of the experiment is MDA-MB-231 cell line. Put plainly: Cancer cell death effect, MTT assay. In kind it is cell-based. To be noted: not irradiated with ultrasound; 2-10 μg/mL doxorubicin, 3 hours treatment, 72 hours culture; FIG. 9. On the procedure:
To compare and analyze a cell death effect of the sonosensitive liposome according to the presence/absence of ultrasound irradiation, cancer cell death effects were compared and analyzed according to the presence/absence of ultrasound irradiation using the sonosensitive liposomes of Example 1. An MDA-MB-231 cell line which is a triple-negative breast cancer cell line was used as cancer cells. The MDA-MB-231 cell line was seeded in each well of a 96-well plate at a concentration of 10,000 cells/mL, and then cultured overnight. The cell culture was cultured in a culture broth containing 10% fetal bovine serum (FBS) and 1% antibiotic in Dulbecco's Modified Eagle Medium (DMEM). The culture broth was removed from the wells in which the cells were cultured overnight, and replaced with FBS-free DMEM, and then cultured for an hour. Then, the sonosensitive liposome were added thereto, and cultured for 3 hours. To compare and analyze the cancer cell death according to the ultrasound irradiation, each of the designated wells was treated with a sonosensitive liposome (Sono liposome (US+)) irradiated with ultrasound and a sonosensitive liposome (Sono liposome (US−)) not irradiated with ultrasound. […] The cancer cell death effects were compared and analyzed by adding 200 μL of DMSO to formed formazan in each well and measuring the absorbance at a wavelength of 540 nm using an ELISA reader.
(In general: Tetrazolium dyes change colour on reduction, which living cells bring about.)

Experimental findings from US20230263905A1, “SONOSENSITIVE LIPOSOME AND METHOD FOR PREPARING SAME” (IMGT CO, LTD., priority 2020, published 2023) are described below.

Consider `COc1cccc2c1C(=O)c1c(O)c3c(c(O)c1C2=O)C[C@@](O)(C(=O)CO)C[C@@H]3O[C@H]1C[C@H](N)[C@H](O)[C@H](C)O1` [doxorubicin], for which the “cell death effect on cancer cells” value was “had a cancer cell death effect”.
